The target of experiment [1] is T1, full length human TREX1 (Homo sapiens, UniProt Q9NSU2).
T1 construct: N-terminally His-Tev tagged full length human TREX1; made in house; host or cells: E. coli
T1 sequence (Q9NSU2 1-314): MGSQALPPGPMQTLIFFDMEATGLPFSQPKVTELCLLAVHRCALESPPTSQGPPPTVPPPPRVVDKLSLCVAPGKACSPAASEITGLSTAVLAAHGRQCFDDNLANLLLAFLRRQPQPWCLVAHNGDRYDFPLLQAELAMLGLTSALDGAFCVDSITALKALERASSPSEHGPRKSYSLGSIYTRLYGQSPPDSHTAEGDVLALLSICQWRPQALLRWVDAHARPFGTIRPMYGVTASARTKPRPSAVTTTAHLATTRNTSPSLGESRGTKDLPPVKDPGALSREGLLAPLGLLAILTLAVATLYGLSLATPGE
Kind of experiment: hTREX1 Biochemical Assay (fluorescence, dsDNA substrate degradation). The note with it: biochemical, read-out: hTREX1 IC50. The procedure: (§1) Degradation of the dsDNA liberates free fluorophore to produce a fluorescent signal. Specifically, 7.5 μL of N-terminally His-Tev tagged full length human TREX1 (expressed in E. coli and purified in house) in reaction buffer (50 mM Tris, 150 mM NaCl, 2 mM DTT, 0.1 mg/mL BSA, 0.01% (w/v) Tween-20, 5 mM MgCl2, pH 7.4) was added to a 384-well Black ProxiPlate Plus (PerkinElmer) which already contained compound (150 nL) at varying concentrations as a 10 point dose-response in DMSO. The plate was incubated at 25° C. for 4 hours. Reactions were initiated by adding 7.5 μL of dsDNA substrate (Strand A: 5′ TEX615/GCT AGG CAG 3′; Strand B: 5′ CTG CCT AGC/IAbRQSp (Integrated DNA Technologies)) in reaction buffer. Final concentrations were 4 pM TREX1, 60 nM dsDNA substrate in reaction buffer with 1.0% DMSO (v/v). After 18 hours at 25° C., reactions were quenched by the addition of 2 μL of 500 mM EDTA.

For experiment [2], the target named is T2, full length mouse TREX1 (Mus musculus, UniProt Q91XB0).
T2 construct: N-terminally His-Tev tagged full length mouse TREX1; made in house; host or cells: E. coli
T2 sequence (Q91XB0 1-314): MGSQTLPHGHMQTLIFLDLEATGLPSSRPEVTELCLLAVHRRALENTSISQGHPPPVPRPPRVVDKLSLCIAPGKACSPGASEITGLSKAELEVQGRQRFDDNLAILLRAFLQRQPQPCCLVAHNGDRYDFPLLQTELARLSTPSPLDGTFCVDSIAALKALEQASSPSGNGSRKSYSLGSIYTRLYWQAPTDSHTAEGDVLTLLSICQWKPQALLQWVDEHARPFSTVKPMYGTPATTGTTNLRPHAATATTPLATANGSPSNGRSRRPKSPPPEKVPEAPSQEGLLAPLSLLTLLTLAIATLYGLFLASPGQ
The experiment in a line: mTREX1 Biochemical Assay (fluorescence, dsDNA substrate degradation). The note with it: biochemical, read-out: mTREX1 IC50. The procedure:
as §1, with “length mouse” for “length human”, “were 6” for “were 4”

IC50 data for 31 compounds are collected here from patent US20240246946A1, “MODULATORS OF TREX1” (Constellation Pharmaceuticals, Inc., priority 2021, published 2024).

For `Cc1cnc(C)c(C(c2ccccc2Cl)C(C)c2nc(C(=O)Nc3cnoc3)c(O)c(=O)n2C)n1` (single isomer, unassigned) [Example 120 D2E1], the IC50 in experiment [1] and in experiment [2] was above 10 nM throughout.
On to `CCn1cc(C(c2cc(F)c(F)cc2Cl)C(C)c2nc(C(=O)Nc3cnoc3)c(O)c(=O)n2C)cn1` (single isomer, unassigned) [Example 72 D1E1], for which the IC50 (commonly the concentration that gives 50% inhibition) in experiment [1] is below 1 nM; in experiment [2], 1 to 10 nM.
The corresponding values for `CC(c1nc(C(=O)Nc2cnoc2)c(O)c(=O)n1C)C(c1cocn1)c1ccccc1C#N` (single isomer, unassigned) [Example 50 D1E2] are above 10 nM and above 10 nM.
Taken in the same sequence, the figures for `CC(c1nc(C(=O)Nc2cnoc2)c(O)c(=O)n1C)C(c1ccccc1C#N)c1nnnn1C` (single isomer, unassigned) [Example 131 D1E2] were above 10 nM and above 10 nM.
The corresponding values for `Cc1nn(C)cc1C(c1ccccc1C#N)C(c1nc(C(=O)Nc2cnoc2)c(O)c(=O)n1C)C(F)(F)F` (single isomer, unassigned) [Example 41 D2E2] are above 10 nM and above 10 nM.
Consider `CC(c1nc(C(=O)Nc2cnoc2)c(O)c(=O)n1C)C(c1cnn(CCO)c1)c1ccccc1C#N` (single isomer, unassigned) [Example 35 D2E1], for which the IC50 in experiment [1] is 1 to 10 nM; in experiment [2], above 10 nM.
Take `CCn1ncc(C(c2ccc(F)cc2C#N)C(C)c2nc(C(=O)Nc3cnoc3)c(O)c(=O)n2C)c1C` (single isomer, unassigned) [Example 65 D1E2]: the IC50 in experiment [1] and in experiment [2] was above 10 nM throughout.
On to `Cc1nn(C)cc1C(c1ccc(F)cc1C#N)C(C)c1nc(C(=O)Nc2cnoc2)c(O)c(=O)n1C` (single isomer, unassigned) [Example 56 D1E2], for which the IC50 in experiment [1] and in experiment [2] was above 10 nM in each case.
In the case of `CC(c1nc(C(=O)Nc2cnoc2)c(O)c(=O)n1C)C(c1cnn(C)c1)c1ccc(Cl)cc1C#N` (single isomer, unassigned) [Example 27 D2E1], the IC50 in experiment [1] and in experiment [2] was above 10 nM throughout.
With `COCCn1cc(C(c2cc(F)c(F)cc2Cl)C(C)c2nc(C(=O)Nc3cnoc3)c(O)c(=O)n2C)cn1` (single isomer, unassigned) [Example 73 D2E1], the IC50 in experiment [1] and in experiment [2] was above 10 nM in each case.
Take `CC(c1nc(C(=O)Nc2cnoc2)c(O)c(=O)n1C)C(c1ncn(C)n1)c1ccccc1C#N` (single isomer, unassigned) [Example 51 D2E2]: the IC50 in experiment [1] and in experiment [2] was above 10 nM in each case.
Take `CC(c1nc(C(=O)Nc2cnoc2)c(O)c(=O)n1C)C(c1cnn(CCN2CCOCC2)c1)c1ccccc1C#N` (single isomer, unassigned) [Example 20 D2E2]: the IC50 in experiment [1] and in experiment [2] was above 10 nM in each case.
Take `CC(c1nc(C(=O)Nc2cnoc2)c(O)c(=O)n1C)C(c1cnn(CC2CC2)c1)c1ccccc1C#N` (single isomer, unassigned) [Example 23 D2E1]: the IC50 in experiment [1] and in experiment [2] was above 10 nM in each case.
For `CC(c1nc(C(=O)Nc2cnoc2)c(O)c(=O)n1C)C(c1cnccn1)c1ccccc1C#N` (single isomer, unassigned) [Example 66 D2E1], the IC50 was 1 to 10 nM in experiment [1] and above 10 nM in experiment [2].
As for `Cc1cnc(C(c2cc(F)ccc2C#N)C(C)c2nc(C(=O)Nc3cnoc3)c(O)c(=O)n2C)cn1` (single isomer, unassigned) [Example 115 D2E1], the IC50 in experiment [1] and in experiment [2] was above 10 nM throughout.
Regarding `CCn1cc(C(c2ccc(F)cc2C#N)C(C)c2nc(C(=O)Nc3cnoc3)c(O)c(=O)n2C)c(C)n1` (single isomer, unassigned) [Example 55 D1E2], the IC50 in experiment [1] and in experiment [2] was above 10 nM throughout.
For the compound `CC(c1nc(C(=O)Nc2cnoc2)c(O)c(=O)n1C)C(c1cnn(C)c1)c1cc(F)ccc1C#N` (single isomer, unassigned) [Example 14 D1E1], the concentration for half-maximal inhibition (IC50) in experiment [1] and in experiment [2] was above 10 nM each time.
For the compound `CC(c1nc(C(=O)Nc2cnoc2)c(O)c(=O)n1C)C(c1cnn(C)c1)c1ccc(C(=O)N(C)C)cc1C#N` (single isomer, unassigned) [Example 11 D2E2], the IC50 in experiment [1] and in experiment [2] was above 10 nM throughout.
On to `CCn1cc(C(c2ccc(F)cc2C#N)C(C)c2nc(C(=O)Nc3cnoc3)c(O)c(=O)n2C)cn1` (single isomer, unassigned) [Example 16 D2E1], for which the IC50 in experiment [1] and in experiment [2] was above 10 nM each time.
Take `CC(c1nc(C(=O)Nc2cnoc2)c(O)c(=O)n1C)C(c1cnn(C)c1)c1ccc(F)cc1C#N` (single isomer, unassigned) [Example 15 D1E2]: the IC50 in experiment [1] and in experiment [2] was above 10 nM throughout.
As to `COCCn1ncc(C(c2ccccc2C#N)C(C)c2nc(C(=O)Nc3cnoc3)c(O)c(=O)n2C)c1C` (single isomer, unassigned) [Example 69 D2E1], the IC50 in experiment [1] and in experiment [2] was above 10 nM in each case.
Take `CC(c1nc(C(=O)Nc2cnoc2)c(O)c(=O)n1C)C(c1cnn(C)c1)c1cc(F)c(F)cc1C#N` (single isomer, unassigned) [Example 25 D1E2]: the 50% inhibitory concentration (IC50) in experiment [1] and in experiment [2] was above 10 nM each time.
Turning to `Cc1cnn(C)c1C(c1ccccc1C#N)C(C)c1nc(C(=O)Nc2cnoc2)c(O)c(=O)n1C` (single isomer, unassigned) [Example 84 D1E2], the IC50 in experiment [1] and in experiment [2] was above 10 nM in each case.
For `CCn1cc(C(c2cc(F)c(F)cc2Cl)C(C)c2nc(C(=O)Nc3cnoc3)c(O)c(=O)n2C)cn1` (single isomer, unassigned) [Example 72 D2E2], the IC50 in experiment [1] and in experiment [2] was above 10 nM in each case.
For the compound `CC(c1nc(C(=O)Nc2cnoc2)c(O)c(=O)n1C)C(c1cnn(CC(F)(F)F)c1)c1ccccc1C#N` (single isomer, unassigned) [Example 22 D2E2], the IC50 in experiment [1] and in experiment [2] was above 10 nM each time.
Consider `Cc1nn(C)cc1C(c1cc(F)ccc1C#N)C(c1nc(C(=O)Nc2cnoc2)c(O)c(=O)n1C)C(F)(F)F` (single isomer, unassigned) [Example 42 D1E1], for which the IC50 in experiment [1] and in experiment [2] was above 10 nM each time.
Take `COCCn1cc(C(c2cc(F)ccc2C#N)C(C)c2nc(C(=O)Nc3cnoc3)c(O)c(=O)n2C)cn1` (single isomer, unassigned) [Example 18 D1E1]: the IC50 in experiment [1] and in experiment [2] was above 10 nM in each case.
Regarding `Cc1ccn(C(c2ccccc2Cl)C(C)c2nc(C(=O)Nc3cnoc3)c(O)c(=O)n2C)n1` (single isomer, unassigned) [Example 49 D1E2], the IC50 in experiment [1] and in experiment [2] was above 10 nM in each case.
`Cc1cncc(C(c2ccccc2C#N)C(C)c2nc(C(=O)Nc3cnoc3)c(O)c(=O)n2C)n1` (single isomer, unassigned) [Example 53 D2E1]: the IC50 in experiment [1] and in experiment [2] was above 10 nM each time.
Turning to `CC(c1nc(C(=O)Nc2cnoc2)c(O)c(=O)n1C)C(c1cnn(CCN2CCN(C)CC2)c1)c1ccccc1C#N` (single isomer, unassigned) [Example 32 D1E2], the IC50 in experiment [1] is 1 to 10 nM; in experiment [2] it was above 10 nM.
`CC(c1nc(C(=O)Nc2cnoc2)c(O)c(=O)n1C)C(c1cnn(C)c1)c1cc(F)c(F)cc1Cl` (single isomer, unassigned) [Example 28 D1E2]: the IC50 in experiment [1] and in experiment [2] was above 10 nM throughout.
